Results as given in patent US20080287511A1, “Anthelmintic Imidazol-Thiazole Derivates” (priority 2005, published 2008).

Assays:
[1] = tested on: PolyRes strain of Haemonchus contortus (resistant against levamisole, mebendazole, ivermectin and closantel); test: Efficacy study of anthelmintics in in vivo H. contortus/jirds model; set-up: species or system Haemonchus contortus in jirds (Meriones unguiculatus); conditions: jirds, oral; for Med. W.b. (median worm burden): treated day 11, necropsy day 14; for % Efficacy: reduction of mean worm count vs control group; for anthelmintic efficacy compared with art known compounds (A) and (B): multi-resistant strain of Haemonchus contortus, comparison in words
Experimental: The anthelmintic efficacy of the compounds of the present invention was evaluated in an in vivo model using unmedicated jirds (Meriones unguiculatus), inoculated three times with approximately 300 exsheated infective larvae of Haemonchus contortus (multiresistant strain), treated orally with a test compound 11 days after their first infection with H. contortus larvae, and necropsied on day 14 to count the number of recovered H. contortus worms. The anthelmintic efficacy of the art known compounds (A) and (B) was also evaluated using the same model.
Female CRW jirds aged between 28 and 35 days and weighing 30-35 g (Charles River, Sulzfeld, Germany) were used. Three jirds each were assigned randomly upon arrival to translucent polysulfone individually ventilated cages (48×37.5×21 cm) containing wood shavings. Commercial rodent chow and water were given ad libitum. Following a four-day acclimation period, the jirds were artificially infected.
A PolyRes strain of Haemonchus contortus (resistant against levamisole, mebendazole, ivermectin and closantel) was used. This strain has been maintained in artificially infected male donor lambs. Individual feces containing Haemonchus eggs were collected in fecal bags. The fecal pellets were broken, mixed with charcoal, moistened and put in an incubator for embryonation at 28° C. and 95% relative humidity. Seven days later this mixture was placed in Baermann funnels and third stage ensheathed larvae were collected after 12 hours. These larvae were rinsed with water for cleaning and disinfected with a 2% formalin solution. Such larvae can be used immediately for artificial infection or can be stored in the fridge at about 8° C. for a maximum duration of 6 months. Infective larvae (<6 months old) were exsheathed by rinsing with a 3.3 vol % commercial sodium hypochlorite solution during 10 minutes, filtered through a Buchner funnel, rinsed with water, concentrated in a Baermann funnel, and collected after 2 hours. Exsheathed larvae prepared in this manner can be used for subsequent infection of jirds or laid in a supply for extended periods by cooling in the gas over liquid nitrogen during 1 hour and storing in liquid nitrogen at −196° C.
All jirds were inoculated orally with approximately 300 exsheathed infective larvae of H. contortus per dose on three consecutive days. Inoculations were administered using a blunted 18 G dosing needle fitted to a 1 ml syringe.
Eleven days after their first infection jirds were treated with test compounds, suspended or dissolved in 0.4 ml DMSO, and the dose to be tested was administered in a volume of 0.1 ml/50 g bodyweight via a blunted 18 G dosing needle fitted to a 1 ml syringe. Control animals, included in each experiment, remained untreated. Levamisole hydrochloride, mebendazole, ivermectin and closantel were used in different dosage titration experiments to validate the model.
All jirds were starved 20 hours before necropsy and killed on day 14 past first infection by CO2 inhalation. For worm recovery their stomachs were removed, opened longitudinally, and incubated in a beaker with 20 ml digestion fluid (10 g pepsin+30 ml concentrated hydrochloric acid) at 37° C. for 3 hours. Following digestion, the stomach content was passed through a tea-strainer, the passage fluid was catched in a sieve (32 μm) and the worms were recovered with tap water. The beakers were stored in the fridge for subsequent counting.
The content of each beaker was mixed, poured over in a 6-well plate in 6 aliquots, and the worms were counted under an inverted microscope.

SMILES | Med. W.b. (median worm burden) ([1]; dose 5 mpk) | % Efficacy ([1]; dose 5 mpk) | Med. W.b. (median worm burden) ([1]; dose 10 mpk) | % Efficacy ([1]; dose 10 mpk) | anthelmintic efficacy compared with art known compounds (A) and (B) [1] | Med. W.b. (median worm burden) ([1]; dose 2.5 mpk) | % Efficacy ([1]; dose 2.5 mpk) | melting point
O=C(Nc1cccc([C@H]2CN3CCSC3=N2)c1)c1ccco1 [Co. No. A, furan-2-carboxylic acid [3-(2,3,5,6-tetrahydro-imidazo[2,1-b]thiazol-6-yl)-phenyl]-amide, reference compound] | 11.0 | 35.3% | 7.0 | 65.0% |  |  |  | 
O=C(Nc1cccc([C@H]2CN3CCSC3=N2)c1)C1CCCO1 (stereo partly drawn) [Co. No. 4] | 5.0 | 68.8% | 3.0 | 85.0% | better demonstrated anthelmintic efficacy than the art known compounds (A) and (B) |  |  | 
O=C(Nc1cccc([C@H]2CN3CCSC3=N2)c1)[C@H]1CCCO1 [Co. No. 1, (2R)-tetrahydro-furan-2-carboxylic acid (6S)-[3-(2,3,5,6-tetrahydro-imidazo[2,1-b]thiazol-6-yl)-phenyl]-amide] | 6.0 | 79.3% | 0.0 | 100.0% | better demonstrated anthelmintic efficacy than the art known compounds (A) and (B) | 36.0 | 65.9% | 42 to 57 °C
c1cc(NCC2CCCO2)cc([C@H]2CN3CCSC3=N2)c1 (stereo partly drawn) [Co. No. B, (tetrahydrofuran-2-ylmethyl)-[3-(2,3,5,6-tetrahydro-imidazo[2,1-b]thiazol-6-yl)-phenyl]-amine, reference compound] | 10.0 | 55.6% | 14.0 | 60.6% |  |  |  | 
